Data from US20100004221A1, “THIAZEPINE DERIVATIVE” (DAIICHI SANKYO COMPANY, LIMITED, priority 2006, published 2010).

`CC1(CO)Cc2nnc(-c3ccc(-c4ccncc4)cc3Cl)n2CCS1` (stereo not shown) [Example 36, {3-[2-Chloro-4-(pyridin-4-yl)phenyl]-8-methyl-5,6,8,9-tetrahydro[1,2,4]triazolo[4,3-d][1,4]thiazepin-8-yl}methanol] showed a melting point of 229 to 233 °C.
`CC1(CO)Cc2nnc(-c3ccc(-n4cccc4)cc3Cl)n2CCS1` (stereo not shown) [Example 40, {3-[2-Chloro-4-(1H-pyrrol-1-yl)phenyl]-8-methyl-5,6,8,9-tetrahydro[1,2,4]triazolo[4,3-d][1,4]thiazepin-8-yl}methanol] showed a melting point of 110 to 112 °C.
In the case of `COc1cc(-c2ccc(F)c(F)c2)ccc1-c1nnc2n1CCSC(C)(CO)C2` (stereo not shown) [Example 31, [3-(3′,4′-Difluoro-3-methoxybiphenyl-4-yl)-8-methyl-5,6,8,9-tetrahydro[1,2,4]triazolo[4,3-d][1,4]thiazepin-8-yl]methanol], the melting point was 183 to 185 °C.
Work on `CC1(CO)Cc2nnc(-c3ccc(-c4cc(Cl)ccc4F)cc3Cl)n2CCS1` (stereo not shown) [Example 29, [3-(3,5′-Dichloro-2′-fluorobiphenyl-4-yl)-8-methyl-5,6,8,9-tetrahydro[1,2,4]triazolo[4,3-d][1,4]thiazepin-8-yl]methanol] yielded a melting point of 186 to 189 °C.
`CC1(CO)Cc2nnc(-c3ccc(-c4ccc(Cl)cc4)cc3Cl)n2CCS1` (stereo not shown) [Example 19, [3-(3,4′-Dichlorobiphenyl-4-yl)-8-methyl-5,6,8,9-tetrahydro[1,2,4]triazolo[4,3-d][1,4]thiazepin-8-yl]methanol] showed a melting point of 219 to 223 °C.
`COc1cc(-c2cccc(Cl)c2)ccc1-c1nnc2n1CCSC(C)(CO)C2` (stereo not shown) [Example 24, [3-(3′-Chloro-3-methoxybiphenyl-4-yl)-8-methyl-5,6,8,9-tetrahydro[1,2,4]triazolo[4,3-d][1,4]thiazepin-8-yl]methanol] showed a melting point of 173 to 176 °C.
`CC1(CO)Cc2nnc(-c3ccc(N4CCCCC4)cc3Cl)n2CCS1` (stereo not shown) [Example 38, {3-[2-Chloro-4-(piperidin-1-yl)phenyl]-8-methyl-5,6,8,9-tetrahydro[1,2,4]triazolo[4,3-d][1,4]thiazepin-8-yl}methanol] showed a melting point of 195 to 198 °C.
For `CC1(CO)Cc2nnc(-c3ccc(-c4cccc(C(F)(F)F)c4)cc3Cl)n2CCS1` (stereo not shown) [Example 17, [3-(3-Chloro-3′-trifluoromethylbiphenyl-4-yl)-8-methyl-5,6,8,9-tetrahydro[1,2,4]triazolo[4,3-d][1,4]thiazepin-8-yl]methanol], the melting point was 195 to 198 °C.
With `CC1(CO)Cc2nnc(-c3ccc(-c4ccc(F)cc4)cc3Cl)n2CCS1` (single isomer, unassigned; (+)) [Example 57, (+)-[3-(3-Chloro-4′-fluorobiphenyl-4-yl)-8-methyl-5,6,8,9-tetrahydro[1,2,4]triazolo[4,3-d][1,4]thiazepin-8-yl]methanol] the melting point was 211 to 214 °C.
With `CC1(CO)Cc2nnc(-c3ccc(-c4ccc(F)cc4)cc3C(F)(F)F)n2CCS1` (stereo not shown) [Example 22, {3-[4′-Fluoro-3-(trifluoromethyl)biphenyl-4-yl)-8-methyl-5,6,8,9-tetrahydro[1,2,4]triazolo[4,3-d][1,4]thiazepin-8-yl]methanol] the melting point was 202 to 204 °C.
For `CC1(CO)Cc2nnc(-c3ccc(-c4ccc(F)c(F)c4)cc3Cl)n2CCS1` (stereo not shown) [Example 26, [3-(3-Chloro-3′,4′-difluorobiphenyl-4-yl)-8-methyl-5,6,8,9-tetrahydro[1,2,4]triazolo[4,3-d][1,4]thiazepin-8-yl]methanol], the melting point was 231 to 234 °C.
Work on `CC1(CO)Cc2nnc(-c3ccc(-c4ccccc4F)cc3Cl)n2CCS1` (stereo not shown) [Example 13, [3-(3-Chloro-2′-fluorobiphenyl-4-yl)-8-methyl-5,6,8,9-tetrahydro[1,2,4]triazolo[4,3-d][1,4]thiazepin-8-yl]methanol] yielded a melting point of 147 to 149 °C.
`COc1cc(-c2ccc(F)cc2)ccc1-c1nnc2n1CCSC(C)(CO)C2` (stereo not shown) [Example 10, [3-(4′-Fluoro-3-methoxybiphenyl-4-yl)-8-methyl-5,6,8,9-tetrahydro[1,2,4]triazolo[4,3-d][1,4]thiazepin-8-yl]methanol] gave a melting point of 212 to 215 °C.
For `CC1(CO)Cc2nnc(-c3cccc4c3ccn4-c3ccc(F)cc3)n2CCS1` (stereo not shown) [Example 43, {3-[1-(4-Fluorophenyl)-1H-indol-4-yl]-8-methyl-5,6,8,9-tetrahydro[1,2,4]triazolo[4,3-d][1,4]thiazepin-8-yl}methanol], the melting point was 117 to 120 °C.
For `CC1(CO)Cc2nnc(-c3ccc(N4CCOCC4)cc3Cl)n2CCS1` (stereo not shown) [Example 37, {3-[2-Chloro-4-(morpholin-4-yl)phenyl]-8-methyl-5,6,8,9-tetrahydro[1,2,4]triazolo[4,3-d][1,4]thiazepin-8-yl}methanol], the melting point was 191 to 193 °C.
In the case of `COc1ccccc1-c1nnc2n1CCSC(C)(C)C2` [Example 47, 8,8-Dimethyl-3-(2-methoxyphenyl)-5,6,8,9-tetrahydro[1,2,4]triazolo[4,3-d][1,4]thiazepine], the melting point was 141 to 143 °C.
`CC1(C)Cc2nnc(-c3ccccc3Cl)n2CCS1` [Example 45, 3-(2-Chlorophenyl)-8,8-dimethyl-5,6,8,9-tetrahydro[1,2,4]triazolo[4,3-d][1,4]thiazepine] gave a melting point of 183 to 185 °C.
`CC1(CO)Cc2nnc(-c3ccc(-c4ccccc4)cc3Cl)n2CCS1` (stereo not shown) [Example 9, [3-(3-Chlorobiphenyl-4-yl)-8-methyl-5,6,8,9-tetrahydro[1,2,4]triazolo[4,3-d][1,4]thiazepin-8-yl]methanol] showed a melting point of 166 to 169 °C.
`CCOc1ccccc1-c1nnc2n1CCSC(C)(C)C2` [Example 49, 3-(2-Ethoxyphenyl)-8,8-dimethyl-5,6,8,9-tetrahydro[1,2,4]triazolo[4,3-d][1,4]thiazepine] gave a melting point of 136 to 137 °C.
With `CC1(CO)Cc2nnc(-c3ccc(-c4cccc(Cl)c4)cc3Cl)n2CCS1` (stereo not shown) [Example 16, [3-(3,3′-Dichlorobiphenyl-4-yl)-8-methyl-5,6,8,9-tetrahydro[1,2,4]triazolo[4,3-d][1,4]thiazepin-8-yl]methanol] the melting point was 173 to 176 °C.
`COc1cc(-c2cccc(NS(C)(=O)=O)c2)ccc1-c1nnc2n1CCSC(C)(CO)C2` (stereo not shown) [Example 55, N-{4′-[8-(Hydroxymethyl)-8-methyl-5,6,8,9-tetrahydro[1,2,4]triazolo[4,3-d][1,4]thiazepin-3-yl]-3′-methoxybiphenyl-3-yl}methanesulfonamide] showed a melting point of 250 to 252 °C.
Compound `CC1(CO)Cc2nnc(-c3ccc(-c4ccc(F)c(Cl)c4)cc3Cl)n2CCS1` (stereo not shown) [Example 30, [3-(3,3′-Dichloro-4′-fluorobiphenyl-4-yl)-8-methyl-5,6,8,9-tetrahydro[1,2,4]triazolo[4,3-d][1,4]thiazepin-8-yl]methanol] has a melting point of 235 to 239 °C.
For `CC1(CO)Cc2nnc(-c3ccc(Oc4ccc(F)cc4)cc3Cl)n2CCS1` (stereo not shown) [Example 42, {3-[2-Chloro-4-(4-fluorophenoxy)phenyl]-8-methyl-5,6,8,9-tetrahydro[1,2,4]triazolo[4,3-d][1,4]thiazepin-8-yl}methanol], the melting point was 138 to 140 °C.
`Cc1ccccc1-c1nnc2n1CCSC(C)(C)C2` [Example 46, 8,8-Dimethyl-3-(2-methylphenyl)-5,6,8,9-tetrahydro[1,2,4]triazolo[4,3-d][1,4]thiazepine] showed a melting point of 106 to 107 °C.
`CC1(CO)Cc2nnc(-c3cc(-c4ccc(F)cc4)ccc3Cl)n2CCS1` (stereo not shown) [Example 34, [3-(4-Chloro-4′-fluorobiphenyl-3-yl)-8-methyl-5,6,8,9-tetrahydro[1,2,4]triazolo[4,3-d][1,4]thiazepin-8-yl]methanol] showed a melting point of 165 to 168 °C.
`Cc1ccc(-c2ccc(-c3nnc4n3CCSC(C)(CO)C4)c(Cl)c2)cc1` (stereo not shown) [Example 20, [3-(3-Chloro-4′-methylbiphenyl-4-yl)-8-methyl-5,6,8,9-tetrahydro[1,2,4]triazolo[4,3-d][1,4]thiazepin-8-yl]methanol] gave a melting point of 223 to 225 °C.
`CC1(CO)Cc2nnc(-c3ccc(-c4cc(F)cc(F)c4)cc3Cl)n2CCS1` (stereo not shown) [Example 27, [3-(3-Chloro-3′,5′-difluorobiphenyl-4-yl)-8-methyl-5,6,8,9-tetrahydro[1,2,4]triazolo[4,3-d][1,4]thiazepin-8-yl]methanol] gave a melting point of 260 to 265 °C.
For `CC1(CO)Cc2nnc(-c3ccc(-c4ccc(F)cc4)cc3Cl)n2CCS1` (single isomer, unassigned; (-)) [Example 56, (−)-[3-(3-chloro-4′-fluorobiphenyl-4-yl)-8-methyl-5,6,8,9-tetrahydro[1,2,4]triazolo[4,3-d][1,4]thiazepin-8-yl]methanol], the melting point was 212 to 215 °C.
`CC1(CO)Cc2nnc(-c3ccc(-c4ccccc4Cl)cc3Cl)n2CCS1` (stereo not shown) [Example 14, [3-(3,2′-Dichlorobiphenyl-4-yl)-8-methyl-5,6,8,9-tetrahydro[1,2,4]triazolo[4,3-d][1,4]thiazepin-8-yl]methanol] gave a melting point of 177 to 180 °C.
`CC1(C)Cc2nnc(-c3ccc(F)cc3Cl)n2CCS1` [Example 50, 3-(2-Chloro-4-fluorophenyl)-8,8-dimethyl-5,6,8,9-tetrahydro[1,2,4]triazolo[4,3-d][1,4]thiazepine] gave a melting point of 177 to 182 °C.
With `CC1(CO)Cc2nnc(-c3ccc(-c4cccc(Cl)c4F)cc3Cl)n2CCS1` (stereo not shown) [Example 28, [3-(3,3′-Dichloro-2′-fluorobiphenyl-4-yl)-8-methyl-5,6,8,9-tetrahydro[1,2,4]triazolo[4,3-d][1,4]thiazepin-8-yl]methanol] the melting point was 156 to 160 °C.
Compound `COc1cccc(-c2ccc(-c3nnc4n3CCSC(C)(CO)C4)c(Cl)c2)c1` (stereo not shown) [Example 18, [3-(3-Chloro-3′-methoxybiphenyl-4-yl)-8-methyl-5,6,8,9-tetrahydro[1,2,4]triazolo[4,3-d][1,4]thiazepin-8-yl]methanol] has a melting point of 181 to 184 °C.
In the case of `CCc1ccccc1-c1nnc2n1CCSC(C)(C)C2` [Example 48, 3-(2-Ethylphenyl)-8,8-dimethyl-5,6,8,9-tetrahydro[1,2,4]triazolo[4,3-d][1,4]thiazepine], the melting point was 125 °C.
For `CC1(CO)Cc2nnc(-c3ccc(-c4cccc(F)c4)cc3Cl)n2CCS1` (stereo not shown) [Example 15, [3-(3-Chloro-3′-fluorobiphenyl-4-yl)-8-methyl-5,6,8,9-tetrahydro[1,2,4]triazolo[4,3-d][1,4]thiazepin-8-yl]methanol], the melting point was 206 to 209 °C.
